Test results from patent US10696674B2, “Spirolactams as inhibitors of ROCK” (BRISTOL-MYERS SQUIBB COMPANY, priority 2016, dated 2020).

Target: ROCK2 (Homo sapiens, UniProt O75116)
Experiment: ROCK2 assay (Caliper LABCHIP peptide phosphorylation)
Assay type: biochemical
Conditions: 5 μM ATP, 1.5 μM peptide substrate
Experimental: The effectiveness of compounds of the present invention as ROCK inhibitors can be determined in a 30 μL assay containing 20 mM HEPES, pH 7.5, 20 mM MgCl2, 0.015% Brij-35, 4 mM DTT, 5 μM ATP and 1.5 μM peptide substrate (FITC-AHA-AKRRRLSSLRA-OH) (SEQ ID NO.1). Compounds were dissolved in DMSO so that the final concentration of DMSO was <2%, and the reaction was initiated with Rho kinase variants. After incubation, the reaction was terminated by the addition of EDTA and the phosphorylated and non-phosphorylated peptides separated using a LABCHIP® 3000 Reader (Caliper Life Sciences). […] Compounds were tested in dose-response format, and the inhibition of kinase activity was calculated at each concentration of compound. The inhibition data were fit using a curve-fitting program to determine the IC50; i.e., the concentration of compound required to inhibit 50% of kinase activity.
Representative Examples were tested in the ROCK2 assay described above and found having ROCK2 inhibitory activity. The ranges of the ROCK2 IC50 values are as follows: ROCK2 IC50: ++++ (<3 nM) +++ (3-30 nM) ++ (30-300 nM) + (300-2000 nM)

Sequence of ROCK2 (O75116 whole entry, species assumed): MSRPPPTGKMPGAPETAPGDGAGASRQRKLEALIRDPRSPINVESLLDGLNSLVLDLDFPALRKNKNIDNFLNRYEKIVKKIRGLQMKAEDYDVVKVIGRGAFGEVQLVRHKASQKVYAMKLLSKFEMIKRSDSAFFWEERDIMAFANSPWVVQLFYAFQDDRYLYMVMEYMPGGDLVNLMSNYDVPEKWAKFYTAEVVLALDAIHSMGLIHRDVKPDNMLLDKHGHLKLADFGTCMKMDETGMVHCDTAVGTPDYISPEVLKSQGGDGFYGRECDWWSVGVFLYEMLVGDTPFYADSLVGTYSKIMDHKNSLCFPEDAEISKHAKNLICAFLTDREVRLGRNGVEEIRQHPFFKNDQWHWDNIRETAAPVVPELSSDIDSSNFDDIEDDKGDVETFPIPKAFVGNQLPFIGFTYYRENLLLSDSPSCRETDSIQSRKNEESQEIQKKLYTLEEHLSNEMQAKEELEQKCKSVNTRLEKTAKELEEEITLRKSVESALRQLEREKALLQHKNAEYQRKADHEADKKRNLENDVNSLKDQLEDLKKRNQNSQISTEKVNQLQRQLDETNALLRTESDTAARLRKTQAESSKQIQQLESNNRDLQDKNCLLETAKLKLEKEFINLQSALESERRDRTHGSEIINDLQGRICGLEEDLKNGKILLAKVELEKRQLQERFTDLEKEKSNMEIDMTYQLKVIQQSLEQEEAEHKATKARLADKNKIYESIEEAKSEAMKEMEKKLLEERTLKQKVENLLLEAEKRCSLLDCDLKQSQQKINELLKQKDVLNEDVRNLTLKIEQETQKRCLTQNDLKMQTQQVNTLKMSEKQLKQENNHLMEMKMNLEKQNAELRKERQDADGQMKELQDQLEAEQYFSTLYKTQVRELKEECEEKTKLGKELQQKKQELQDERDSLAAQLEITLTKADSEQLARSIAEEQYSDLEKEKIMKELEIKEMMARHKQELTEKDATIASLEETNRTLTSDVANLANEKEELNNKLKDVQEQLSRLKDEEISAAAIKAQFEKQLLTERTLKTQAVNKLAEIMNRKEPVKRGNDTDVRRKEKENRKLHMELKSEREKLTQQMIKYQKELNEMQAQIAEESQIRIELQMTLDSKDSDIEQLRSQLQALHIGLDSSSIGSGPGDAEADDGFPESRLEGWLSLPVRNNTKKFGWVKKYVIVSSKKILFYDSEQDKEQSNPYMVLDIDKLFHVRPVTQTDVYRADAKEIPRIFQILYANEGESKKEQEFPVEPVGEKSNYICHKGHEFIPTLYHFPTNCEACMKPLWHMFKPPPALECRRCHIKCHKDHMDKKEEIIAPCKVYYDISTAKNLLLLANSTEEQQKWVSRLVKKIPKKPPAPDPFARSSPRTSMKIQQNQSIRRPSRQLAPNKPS

Compound | IC50
COc1nc(N2CCC3(Cc4ccccc4N3)C2=O)ccc1-c1cn[nH]c1 (stereo not shown) [Example 10, 1′-(6-methoxy-5-(1H-pyrazol-4-yl)pyridin-2-yl)spiro[indoline-2,3′-pyrrolidin]-2′-one] | < 3 nM
COc1cc(N2CCC3(Cc4ccccc4N3)C2=O)ccc1-c1cn[nH]c1 (single isomer, unassigned) [Example 33, 1′-(3-Methoxy-4-(1H-pyrazol-4-yl)phenyl)spiro[indoline-2,3′-pyrrolidin]-2′-one] | 30 to 300 nM
O=C1N(c2ccc(-c3cn[nH]c3)cc2)CC(CO)C12Cc1ccccc1N2 (stereo not shown) [Example 52, 1′-(4-(1H-pyrazol-4-yl)phenyl)-4′-(hydroxymethyl)spiro[indoline-2,3′-pyrrolidin]-2′-one] | < 3 nM
O=C1N(c2ccc(-c3ccnc4[nH]ccc34)cc2)CCC12Cc1ccccc1CN2 (stereo not shown) [Example 49, 1′-(4-(1H-pyrrolo[2,3-b]pyridin-4-yl)phenyl)-1,4-dihydro-2H-spiro[isoquinoline-3,3′-pyrrolidin]-2′-one] | 3 to 30 nM
O=C1N(c2ccc(-c3cn[nH]c3)cc2)CCC12Cc1ncccc1N2 (stereo not shown) [Example 28, 1-(4-(1H-Pyrazol-4-yl)phenyl)-1′,3′-dihydrospiro[pyrrolidine-3,2′-pyrrolo[3,2-b]pyridin]-2-one] | 30 to 300 nM
COc1ccc2c(c1)CC1(CCN(c3ccc(-c4cn[nH]c4)cc3)C1=O)O2 (stereo not shown) [Example 24, 1′-(4-(1H-Pyrazol-4-yl)phenyl)-5-methoxy-3H-spiro[benzofuran-2,3′-pyrrolidin]-2′-one] | < 3 nM
O=C1N(c2ccc(-c3cn[nH]c3)cc2)CCC12Cc1ccc(OCC3CC3)cc1N2 (single isomer, unassigned) [Example 43, 1′-(4-(1H-Pyrazol-4-yl)phenyl)-6-(cyclopropylmethoxy)spiro[indoline-2,3′-pyrrolidin]-2′-one] | 30 to 300 nM
COc1cc(F)c2c(c1)NC1(CCN(c3ccc(-c4cn[nH]c4)cc3)C1=O)C2 (single isomer, unassigned) [Example 40, 1′-(4-(1H-Pyrazol-4-yl)phenyl)-4-fluoro-6-methoxyspiro[indoline-2,3′-pyrrolidin]-2′-one] | < 3 nM
COc1cc(N2CCC3(Cc4ccccc4C3)C2=O)ccc1-c1cn[nH]c1 [Example 35, 1′-(3-Methoxy-4-(1H-pyrazol-4-yl)phenyl)-1,3-dihydrospiro[indene-2,3′-pyrrolidin]-2′-one] | 3 to 30 nM
O=C1N(c2ccc(-c3cn[nH]c3)cc2)CCC12CCc1ccccc1O2 (stereo not shown) [Example 50, 1′-(4-(1H-pyrazol-4-yl)phenyl)spiro[chromane-2,3′-pyrrolidin]-2′-one] | 30 to 300 nM
COc1ccc2c(c1)NC1(CCN(c3ccc(-c4cn[nH]c4)cc3)C1=O)C2 (stereo not shown) [Example 4, 1′-(4-(1H-Pyrazol-4-yl)phenyl)-6-methoxyspiro[indoline-2,3′-pyrrolidin]-2′-one] | < 3 nM
O=C1N(c2cnc(-c3cn[nH]c3)cn2)CCC12Cc1ccccc1N2 (stereo not shown) [Example 44, 1′-(5-(1H-Pyrazol-4-yl)pyrazin-2-yl)spiro[indoline-2,3′-pyrrolidin]-2′-one] | 3 to 30 nM
O=C1N(c2ccc(-c3cn[nH]c3)cc2)CCC12Cc1ccccc1C2 [Example 11, 1′-(4-(1H-Pyrazol-4-yl)phenyl)-1,3-dihydrospiro[indene-2,3′-pyrrolidin]-2′-one] | 3 to 30 nM
O=C1N(c2ccc(-c3cn[nH]c3)cc2)CC(CO)C12CCc1ccccc1N2 (stereo not shown) [Example 56, 1-(4-(1H-pyrazol-4-yl)phenyl)-4-(hydroxymethyl)-3′,4′-dihydro-1′H-spiro[pyrrolidine-3,2′-quinolin]-2-one] | < 3 nM
O=C1N(c2ccc(-c3cn[nH]c3)cc2)CCC12Cc1cc(F)ccc1N2 (racemic) [Example 7, 1′-(4-(1H-Pyrazol-4-yl)phenyl)-5-fluorospiro[indoline-2,3′-pyrrolidin]-2′-one] | 3 to 30 nM
COc1cc(N2CCC3(Cc4ccccc4N3)C2=O)ccc1-c1cn[nH]c1 (single isomer, unassigned) [Example 34, 1′-(3-methoxy-4-(1H-pyrazol-4-yl)phenyl)spiro[indoline-2,3′-pyrrolidin]-2′-one] | < 3 nM
COc1ccc2c(c1)NC1(CCN(c3ccc(-c4cn[nH]c4)cc3)C1=O)C2 (single isomer, unassigned) [Example 5, 1′-(4-(1H-Pyrazol-4-yl)phenyl)-6-methoxyspiro[indoline-2,3′-pyrrolidin]-2′-one] | < 3 nM
O=C1N(c2ccc(-c3cn[nH]c3)cc2)CCC12Cc1ccc(O)cc1N2 (stereo not shown) [Example 37] | < 3 nM
O=C1N(c2ccc(-c3cn[nH]c3)cn2)CCC12Cc1ccccc1N2 (stereo not shown) [Example 41, 1′-(5-(1H-Pyrazol-4-yl)pyridin-2-yl)spiro[indoline-2,3′-pyrrolidin]-2′-one] | 3 to 30 nM

Compound | IC50
O=C1N(c2ccc(-c3cn[nH]c3)cc2)CCC12Cc1ccccc1O2 (single isomer, unassigned) [Example 30, 1′-(4-(1H-Pyrazol-4-yl)phenyl)-3H-spiro[benzofuran-2,3′-pyrrolidin]-2′-one] | 30 to 300 nM
O=C1N(c2ccc(-c3cn[nH]c3)cc2)CCC12Cc1cc(F)ccc1N2 (single isomer, unassigned) [Example 9, 1′-(4-(1H-Pyrazol-4-yl)phenyl)-5-fluorospiro[indoline-2,3′-pyrrolidin]-2′-one] | 30 to 300 nM
O=C1N(c2ccc(-c3cn[nH]c3)cc2)CCC12Cc1ccccc1O2 (racemic) [Example 29, 1′-(4-(1H-Pyrazol-4-yl)phenyl)-3H-spiro[benzofuran-2,3′-pyrrolidin]-2′-one] | < 3 nM
O=C1N(c2ccc(-c3cn[nH]c3)cc2)CCC12Cc1ccc(OCC3CC3)cc1N2 (single isomer, unassigned) [Example 42, 1′-(4-(1H-Pyrazol-4-yl)phenyl)-6-(cyclopropylmethoxy)spiro[indoline-2,3′-pyrrolidin]-2′-one] | < 3 nM
COc1nc(N2CCC3(Cc4ccc(F)cc4C3)C2=O)ccc1-c1cn[nH]c1 (single isomer, unassigned) [Example 17, 5-Fluoro-1′-(6-methoxy-5-(1H-pyrazol-4-yl)pyridin-2-yl)-1,3-dihydrospiro[indene-2,3′-pyrrolidin]-2′-one] | < 3 nM
O=C1N(c2ccc(-c3cn[nH]c3)cc2)CCC12Cc1ccc(F)cc1C2 (single isomer, unassigned) [Example 16, 1′-(4-(1H-Pyrazol-4-yl)phenyl)-5-fluoro-1,3-dihydrospiro[indene-2,3′-pyrrolidin]-2′-one] | 3 to 30 nM
O=C1N(c2ccc(-c3cn[nH]c3)cc2)CCC12Cc1cc(F)ccc1N2 (single isomer, unassigned) [Example 8, 1′-(4-(1H-Pyrazol-4-yl)phenyl)-5-fluorospiro[indoline-2,3′-pyrrolidin]-2′-one] | 3 to 30 nM
COc1cc(F)c2c(c1)NC1(CCN(c3ccc(-c4cn[nH]c4)cc3)C1=O)C2 (single isomer, unassigned) [Example 39, 1′-(4-(1H-Pyrazol-4-yl)phenyl)-4-fluoro-6-methoxyspiro[indoline-2,3′-pyrrolidin]-2′-one] | 300 to 2000 nM
O=C1N(c2ccc(-c3cn[nH]c3)cc2)CCC12CCc1ccccc1N2 (stereo not shown) [Example 47, 1-(4-(1H-pyrazol-4-yl)phenyl)-3′,4′-dihydro-1 ^1H-spiro[pyrrolidine-3,2′-quinolin]-2-one] | < 3 nM
O=C1N(c2ccc(-c3cn[nH]c3)cc2)CCC12Cc1ccccc1N2 (single isomer, unassigned) [Example 2, 1′-(4-(1H-Pyrazol-4-yl)phenyl)spiro[indoline-2,3′-pyrrolidin]-2′-one] | < 3 nM
O=C1N(c2ccc(-c3cn[nH]c3)cc2)CCC12Cc1ccccc1O2 (single isomer, unassigned) [Example 31, 1′-(4-(1H-Pyrazol-4-yl)phenyl)-3H-spiro[benzofuran-2,3′-pyrrolidin]-2′-one] | < 3 nM
O=C1N(c2ccc(-c3ccc4[nH]ncc4c3)cc2)CCC12Cc1ccccc1N2 (stereo not shown) [Example 13, 1′-(4-(1H-Indazol-5-yl)phenyl)spiro[indoline-2,3′-pyrrolidin]-2′-one] | 3 to 30 nM
O=C1N(c2ccc(-c3cn[nH]c3)cc2)CCC12Cc1ccccc1N2 (single isomer, unassigned) [Example 3, 1′-(4-(1H-Pyrazol-4-yl)phenyl)spiro[indoline-2,3′-pyrrolidin]-2′-one] | 30 to 300 nM
O=C1N(c2ccc(-c3cn[nH]c3)cc2)CCC12Cc1ccccc1CN2 (stereo not shown) [Example 48, 1′-(4-(1H-pyrazol-4-yl)phenyl)-1,4-dihydro-2H-spiro[isoquinoline-3,3′-pyrrolidin]-2′-one] | 30 to 300 nM
COc1cc(N2CCC3(Cc4ccccc4N3)C2=O)ccc1-c1cn[nH]c1 (racemic) [Example 32, 1′-(3-methoxy-4-(1H-pyrazol-4-yl)phenyl)spiro[indoline-2,3′-pyrrolidin]-2′-one] | < 3 nM
CC(C)(O)COc1ccc2c(c1)NC1(CCN(c3ccc(-c4cn[nH]c4)cc3)C1=O)C2 (stereo not shown) [Example 36] | 30 to 300 nM
O=C1N(c2ccc(-c3ccncc3)cc2)CCC12Cc1ccccc1O2 (stereo not shown) [Example 46, 1′-(4-(Pyridin-4-yl)phenyl)-3H-spiro[benzofuran-2,3′-pyrrolidin]-2′-one] | 3 to 30 nM
Cc1cccc2c1CC1(CCN(c3ccc(-c4cn[nH]c4)cc3)C1=O)N2 (stereo not shown) [Example 27, 1′-(4-(1H-Pyrazol-4-yl)phenyl)-4-methylspiro[indoline-2,3′-pyrrolidin]-2′-one] | 3 to 30 nM
